In ChEMBL document CHEMBL3804811 (J Med Chem, 2016):
≈ marks a conversion by molar mass, not a printed value.

How the values were obtained:
[1] = Antiproliferative activity against human KARPAS299 cells incubated for 72 hrs by cell titer-glo assay; settings: KARPAS-299, 72 h
Insulin receptor = Insulin receptor (Homo sapiens, UniProt P06213); assay: Inhibition of IR (unknown origin) in presence of gamma33-ATP
[2] = Apparent permeability from apical to basolateral side in human Caco2 cells at 2.5 mg/ml after 2 hrs by reversed-phase HPLC method; assay type: ADME, cell-based; settings: Caco-2
[3] = molecular target: ALK tyrosine kinase receptor (Homo sapiens, UniProt Q9UM73)
Chain of ALK tyrosine kinase receptor (Q9UM73 whole entry): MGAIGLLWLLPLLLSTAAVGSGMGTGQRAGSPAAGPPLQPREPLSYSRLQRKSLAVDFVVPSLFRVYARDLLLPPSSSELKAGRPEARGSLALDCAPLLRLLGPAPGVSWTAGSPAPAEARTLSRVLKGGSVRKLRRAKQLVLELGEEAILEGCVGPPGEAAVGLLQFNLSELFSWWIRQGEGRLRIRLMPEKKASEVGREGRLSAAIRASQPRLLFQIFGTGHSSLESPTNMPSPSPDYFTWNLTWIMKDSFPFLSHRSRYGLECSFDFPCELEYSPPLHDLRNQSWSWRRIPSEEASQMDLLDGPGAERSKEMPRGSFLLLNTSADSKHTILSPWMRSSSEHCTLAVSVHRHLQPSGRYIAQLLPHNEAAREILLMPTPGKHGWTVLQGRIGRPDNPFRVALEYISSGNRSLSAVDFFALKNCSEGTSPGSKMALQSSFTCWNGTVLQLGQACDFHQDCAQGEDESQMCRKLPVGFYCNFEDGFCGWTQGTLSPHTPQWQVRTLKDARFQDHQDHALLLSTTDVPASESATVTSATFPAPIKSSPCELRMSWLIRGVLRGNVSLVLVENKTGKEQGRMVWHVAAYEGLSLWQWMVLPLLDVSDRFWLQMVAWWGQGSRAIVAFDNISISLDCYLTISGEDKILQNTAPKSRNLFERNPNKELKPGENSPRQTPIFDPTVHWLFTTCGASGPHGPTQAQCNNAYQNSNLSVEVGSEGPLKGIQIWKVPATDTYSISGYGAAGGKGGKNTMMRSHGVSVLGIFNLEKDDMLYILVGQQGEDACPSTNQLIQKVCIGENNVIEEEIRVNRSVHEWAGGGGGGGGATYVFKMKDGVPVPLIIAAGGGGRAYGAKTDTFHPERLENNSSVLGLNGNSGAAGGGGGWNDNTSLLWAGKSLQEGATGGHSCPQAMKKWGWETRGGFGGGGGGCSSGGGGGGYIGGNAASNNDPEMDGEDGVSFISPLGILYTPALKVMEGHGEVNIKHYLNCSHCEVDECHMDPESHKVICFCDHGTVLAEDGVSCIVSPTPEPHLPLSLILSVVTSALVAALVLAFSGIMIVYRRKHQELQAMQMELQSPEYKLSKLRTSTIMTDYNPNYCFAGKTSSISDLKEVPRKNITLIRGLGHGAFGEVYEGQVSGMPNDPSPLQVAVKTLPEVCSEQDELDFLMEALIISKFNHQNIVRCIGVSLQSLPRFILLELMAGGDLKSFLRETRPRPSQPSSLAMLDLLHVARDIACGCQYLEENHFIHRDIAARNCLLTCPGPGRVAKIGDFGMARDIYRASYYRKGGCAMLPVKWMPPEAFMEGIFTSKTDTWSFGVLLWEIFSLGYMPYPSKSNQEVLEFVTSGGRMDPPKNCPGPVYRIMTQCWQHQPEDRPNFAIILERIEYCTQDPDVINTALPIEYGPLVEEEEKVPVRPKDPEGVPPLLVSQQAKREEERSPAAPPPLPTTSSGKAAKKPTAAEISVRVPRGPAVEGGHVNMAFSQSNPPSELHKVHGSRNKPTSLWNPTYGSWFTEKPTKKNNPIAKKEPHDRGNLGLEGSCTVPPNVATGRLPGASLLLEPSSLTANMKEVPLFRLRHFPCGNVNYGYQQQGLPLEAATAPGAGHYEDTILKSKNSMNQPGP
Description: Inhibition of recombinant ALK (unknown origin) in presence of gamma33-ATP

[4] = Cmax in Harlan nu/nu mouse at 10 mg/kg, iv administered as single dose by LC-MS/MS analysis; assay type: ADME, organism-based; design: dose 10 mg/kg, route intravenous; settings: in vivo
[5] = Solubility of compound at pH 7 buffer; assay type: physicochemical
[6] = Tmax in Harlan nu/nu mouse at 10 mg/kg, po administered as single dose by LC-MS/MS analysis; assay type: ADME, organism-based; settings: in vivo
[7] = AUC (infinity) in Harlan nu/nu mouse at 10 mg/kg, iv administered as single dose by LC-MS/MS analysis; assay type: ADME, organism-based; design: dose 10 mg/kg, time infinity, route intravenous; settings: in vivo
[8] = Clearance in Harlan nu/nu mouse at 10 mg/kg, iv administered as single dose by LC-MS/MS analysis; assay type: ADME, organism-based; settings: in vivo
[9] = Intrinsic clearance in rat hepatocytes at […] after 10 to 90 mins by LC-MS/MS analysis; assay type: ADME, cell-based, Hepatocyte; settings: read-out: CLH
[10] = AUC (infinity) in Harlan nu/nu mouse at 10 mg/kg, po administered as single dose by LC-MS/MS analysis; assay type: ADME, organism-based; design: dose 10 mg/kg, route oral, time infinity; settings: in vivo
[11] = Oral bioavailability in Harlan nu/nu mouse at 10 mg/kg administered as single dose by LC-MS/MS analysis; assay type: ADME, organism-based; settings: in vivo
[12] = Volume of distribution at steady state in Harlan nu/nu mouse at 10 mg/kg, iv administered as single dose by LC-MS/MS analysis; settings: in vivo
[13] = Half life in Harlan nu/nu mouse at 10 mg/kg, iv administered as single dose by LC-MS/MS analysis; assay type: ADME, organism-based; settings: in vivo
[14] = Cmax in Harlan nu/nu mouse at 10 mg/kg, po administered as single dose by LC-MS/MS analysis; assay type: ADME, organism-based; design: dose 10 mg/kg, route oral; settings: in vivo
[15] = Intrinsic clearance in human liver microsomes at […] preincubated for 5 mins followed by NADPH addition measured after 5 to 30 mins by LC-MS/MS analysis; assay type: ADME; settings: read-out: CLH
[16] = Apparent permeability from basolateral to apical side in human Caco2 cells at 2.5 mg/ml after 2 hrs by reversed-phase HPLC method; assay type: ADME, cell-based; settings: Caco-2
[17] = Half life in Harlan nu/nu mouse at 10 mg/kg, po administered as single dose by LC-MS/MS analysis; assay type: ADME, organism-based; settings: in vivo

Chain of Insulin receptor (P06213 28-758 limits assumed): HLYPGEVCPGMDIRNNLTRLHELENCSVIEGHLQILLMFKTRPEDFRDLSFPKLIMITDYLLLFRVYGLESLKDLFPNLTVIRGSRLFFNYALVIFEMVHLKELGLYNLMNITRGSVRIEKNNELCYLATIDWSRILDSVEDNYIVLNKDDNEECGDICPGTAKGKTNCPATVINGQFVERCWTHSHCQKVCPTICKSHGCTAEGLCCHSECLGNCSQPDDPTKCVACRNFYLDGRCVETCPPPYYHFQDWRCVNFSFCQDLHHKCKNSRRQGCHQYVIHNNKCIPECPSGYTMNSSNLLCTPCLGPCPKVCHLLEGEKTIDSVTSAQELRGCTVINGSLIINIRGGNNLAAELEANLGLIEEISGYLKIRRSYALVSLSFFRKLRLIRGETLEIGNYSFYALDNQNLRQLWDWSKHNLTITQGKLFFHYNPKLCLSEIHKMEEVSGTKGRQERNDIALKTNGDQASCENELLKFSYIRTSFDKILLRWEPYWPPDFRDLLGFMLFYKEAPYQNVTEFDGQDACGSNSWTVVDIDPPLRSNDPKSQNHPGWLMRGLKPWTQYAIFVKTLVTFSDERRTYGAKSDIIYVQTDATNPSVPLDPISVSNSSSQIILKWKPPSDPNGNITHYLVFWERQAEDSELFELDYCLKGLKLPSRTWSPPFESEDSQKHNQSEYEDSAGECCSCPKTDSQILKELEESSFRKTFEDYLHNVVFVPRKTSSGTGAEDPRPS
Chain of Insulin receptor (P06213 763-1382 limits assumed): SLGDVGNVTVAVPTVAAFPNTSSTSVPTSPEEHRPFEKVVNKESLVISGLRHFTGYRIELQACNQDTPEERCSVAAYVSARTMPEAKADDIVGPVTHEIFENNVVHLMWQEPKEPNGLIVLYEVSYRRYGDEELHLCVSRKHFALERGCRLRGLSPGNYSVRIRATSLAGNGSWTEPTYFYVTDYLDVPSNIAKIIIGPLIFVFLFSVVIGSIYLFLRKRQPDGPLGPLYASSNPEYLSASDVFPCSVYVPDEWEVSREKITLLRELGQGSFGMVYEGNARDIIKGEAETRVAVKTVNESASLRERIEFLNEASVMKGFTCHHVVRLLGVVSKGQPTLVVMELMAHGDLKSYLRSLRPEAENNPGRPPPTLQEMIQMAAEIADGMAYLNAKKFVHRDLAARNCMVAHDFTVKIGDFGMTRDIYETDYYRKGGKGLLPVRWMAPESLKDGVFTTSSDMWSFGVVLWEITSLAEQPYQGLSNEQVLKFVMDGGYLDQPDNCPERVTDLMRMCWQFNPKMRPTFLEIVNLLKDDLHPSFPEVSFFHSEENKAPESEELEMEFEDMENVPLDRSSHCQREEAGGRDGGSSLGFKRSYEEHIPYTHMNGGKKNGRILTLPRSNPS

Row | SMILES | IC50 [1] | IC50 (Insulin receptor) | IC50 [3] | also measured
1 | CN1CCC(Nc2cc(N3CCN(C)CC3)ccc2C(=O)Nc2n[nH]c3ccc(Cc4cc(F)cc(F)c4)cc23)CC1 | 438 nM | 330 nM | 15 nM | Papp A→B at 2 h, 2.5 mg/ml [2]: 1.5 ×10⁻⁶ cm/s
2 | CN1CCN(c2ccc(C(=O)Nc3n[nH]c4ccc(Cc5cc(F)cc(F)c5)cc34)c(NCCF)c2)CC1 | 49 nM | 462 nM | 14 nM | Cmax [4]: 7.58 µM; solubility [5]: 16 µM (≈ 8.36 µg/mL); Tmax [6]: 4.33 h; AUC(0-inf) [7]: 24.7 µM·h; clearance [8]: 11.7 mL/min/kg; CLint scaled [9]: 18 mL/min/kg; Papp A→B at 2 h, 2.5 mg/ml [2]: 2.4 ×10⁻⁶ cm/s; AUC(0-inf) [10]: 31.5 µM·h; bioavailability [11]: 99%; Vd [12]: 4.76 L/kg; half-life [13]: 5.92 h; Cmax [14]: 1.88 µM; CLint scaled [15]: 24 mL/min/kg; Papp B→A at 2 h, 2.5 mg/ml [16]: 1.5 ×10⁻⁶ cm/s; half-life [17]: 9.86 h
3 | CN(C)CCN(C)C(=O)c1ccc(C(=O)Nc2n[nH]c3ccc(Cc4cc(F)cc(F)c4)cc23)c(NC2CCOCC2)c1 | 50 nM | 457 nM | 15 nM | Cmax [4]: 10.3 µM; solubility [5]: 51 µM (≈ 30.1 µg/mL); AUC(0-inf) [7]: 7.86 µM·h; clearance [8]: 38.8 mL/min/kg; CLint scaled [9]: 42 mL/min/kg; Papp A→B at 2 h, 2.5 mg/ml [2]: 2.7 ×10⁻⁶ cm/s; Vd [12]: 4.41 L/kg; half-life [13]: 2.83 h; CLint scaled [15]: 57 mL/min/kg; Papp B→A at 2 h, 2.5 mg/ml [16]: 19.8 ×10⁻⁶ cm/s
4 | O=C(Nc1n[nH]c2ccc(Cc3cc(F)cc(F)c3)cc12)c1ccc(CN2CCCCC2)cc1NC1CCOCC1 | 38 nM | 653 nM | 18 nM | Cmax [4]: 5.69 µM; solubility [5]: 84 µM (≈ 47 µg/mL); Tmax [6]: 0.83 h; AUC(0-inf) [7]: 7.97 µM·h; clearance [8]: 32.1 mL/min/kg; CLint scaled [9]: 229 mL/min/kg; Papp A→B at 2 h, 2.5 mg/ml [2]: 1.1 ×10⁻⁶ cm/s; AUC(0-inf) [10]: 1.51 µM·h; bioavailability [11]: 18%; Vd [12]: 2.63 L/kg; half-life [13]: 1.52 h; Cmax [14]: 0.36 µM; CLint scaled [15]: 40 mL/min/kg; Papp B→A at 2 h, 2.5 mg/ml [16]: 1.9 ×10⁻⁶ cm/s; half-life [17]: 2.25 h
5 | CN1CCN(c2ccc(C(=O)Nc3n[nH]c4ccc(Cc5cc(F)cc(F)c5)cc34)c(NCC3CN(C)C3)c2)CC1 | 386 nM | 353 nM | 67 nM | –
6 | COCCNc1cc(N2CCN(C)CC2)ccc1C(=O)Nc1n[nH]c2ccc(Cc3cc(F)cc(F)c3)cc12 | 243 nM | 1760 nM | 210 nM | –
7 | COCC(COC)Nc1cc(N2CCN(C)CC2)ccc1C(=O)Nc1n[nH]c2ccc(Cc3cc(F)cc(F)c3)cc12 | 340 nM | 1640 nM | 99 nM | –
8 | Cc1ccc(F)cc1Cc1ccc2[nH]nc(NC(=O)c3ccc(N4CCN(C)CC4)cc3NC3CCOCC3)c2c1 | 851 nM | 823 nM | 181 nM | –
9 | CN1CCN(c2ccc(C(=O)Nc3n[nH]c4ccc(Cc5cc(F)cc(F)c5)cc34)c(N)c2)CC1 | 214 nM | 1300 nM | 67 nM | –
10 | CN1CCN(c2ccc(C(=O)Nc3n[nH]c4ccc(Cc5cc(F)cc(F)c5)cc34)cc2)CC1 | 253 nM | 1810 nM | 73 nM | –
11 | CN1CCN(c2ccc(C(=O)Nc3n[nH]c4ccc(Cc5cc(F)cc(F)c5)cc34)c(NC3CCCCC3)c2)CC1 | 609 nM | 3820 nM | 560 nM | –
12 | CN1CCN(c2ccc(C(=O)Nc3n[nH]c4ccc(Cc5cc(F)cc(F)c5)cc34)c(NCc3ccccc3)c2)CC1 | 1260 nM | 3690 nM | 378 nM | –
13 | CN1CCN(c2ccc(C(=O)Nc3n[nH]c4ccc(Cc5cc(F)cc(F)c5)cc34)c(NCCO)c2)CC1 | 118 nM | 906 nM | 26 nM | –
14 | C[C@H](c1cc(F)cc(F)c1)c1ccc2[nH]nc(NC(=O)c3ccc(N4CCN(C)CC4)cc3NC3CCOCC3)c2c1 | 41 nM | 1160 nM | 59 nM | –
15 | CN1CCN(c2ccc(C(=O)Nc3n[nH]c4ccc(Cc5cc(F)cc(F)c5)cc34)c(Nc3ccccc3)c2)CC1 | 991 nM | 9870 nM | 684 nM | –
16 | CN1CCN(c2ccc(C(=O)Nc3n[nH]c4ccc(Cc5cc(F)ccc5F)cc34)c(NC3CCOCC3)c2)CC1 | 49 nM | 170 nM | 38 nM | –
17 | COCCCNc1cc(N2CCN(C)CC2)ccc1C(=O)Nc1n[nH]c2ccc(Cc3cc(F)cc(F)c3)cc12 | 194 nM | 1190 nM | 135 nM | –
18 | COC[C@@H](C)Nc1cc(N2CCN(C)CC2)ccc1C(=O)Nc1n[nH]c2ccc(Cc3cc(F)cc(F)c3)cc12 | 74 nM | 1070 nM | 72 nM | –
19 | CN1CCN(c2ccc(C(=O)Nc3n[nH]c4ccc(Cc5cc(F)cc(F)c5)cc34)c(N[C@H]3CC[C@H](O)CC3)c2)CC1 | 68 nM | 189 nM | 10 nM | Cmax [4]: 7.06 µM; solubility [5]: 7 µM (≈ 4.02 µg/mL); Tmax [6]: 1 h; AUC(0-inf) [7]: 13.1 µM·h; clearance [8]: 21.3 mL/min/kg; CLint scaled [9]: 45 mL/min/kg; Papp A→B at 2 h, 2.5 mg/ml [2]: 1.8 ×10⁻⁶ cm/s; AUC(0-inf) [10]: 1.25 µM·h; bioavailability [11]: 7.3%; Vd [12]: 3.02 L/kg; half-life [13]: 3.01 h; Cmax [14]: 0.36 µM; CLint scaled [15]: 25 mL/min/kg; Papp B→A at 2 h, 2.5 mg/ml [16]: 5.1 ×10⁻⁶ cm/s
20 | C[C@@H](c1cc(F)cc(F)c1)c1ccc2[nH]nc(NC(=O)c3ccc(N4CCN(C)CC4)cc3NC3CCOCC3)c2c1 | 16 nM | 189 nM | 19 nM | –
21 | CN1CCN(c2ccc(C(=O)Nc3n[nH]c4ccc(Cc5cc(F)cc(F)c5)cc34)c(N[C@H]3CC[C@@H](O)CC3)c2)CC1 | 162 nM | 707 nM | 98 nM | –
22 | CN1CCN(c2ccc(C(=O)Nc3n[nH]c4ccc(Cc5cccc(F)c5)cc34)c(NC3CCOCC3)c2)CC1 | 18 nM | 427 nM | 30 nM | –
23 | CN1CCN(c2ccc(C(=O)Nc3n[nH]c4ccc(Cc5ccccc5)cc34)c(NC3CCOCC3)c2)CC1 | 182 nM | 1490 nM | 106 nM | –
